From PubChem BioAssay AID248 (DTP/NCI, 2004)
Several values for one entry are separate records, joined by “and”; a condition that tells them apart may be missing. Equal entries are not always repeated. Inconclusive results and toxic doses are left out. Cut-off read from the data, not from the text of the source: active = T/C of 150% or more; inactive = T/C below 125%.

Test system: L1210 leukemia ip in BDF1 mice, survival T/C
Assay: NCI In Vivo Anticancer Drug Screen. Data for tumor model L1210 Leukemia (intraperitoneal) in B6D2F1 (BDF1) mice
Details: endpoint: mean survival time, higher = longer survival
Outline: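 Mice bearing the transplanted tumor received compound or vehicle. Survival of the treated group was divided by that of the vehicle-treated control group to give the ratio.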

[1] = dose: 100.0 mg/kg/injection, schedule: Q04DX003 (ip), vehicle: saline
[2] = dose: 200.0 mg/kg/injection, schedule: Q04DX003 (ip), vehicle: saline
[3] = dose: 400.0 mg/kg/injection, schedule: Q04DX003 (ip), vehicle: saline

Measured: T/C

Nc1ncnc2c1ncn2C1OC(CO)C(O)C1O (stereo not given)
inactive: dose: 6.25 mg/kg/injection, schedule: Q01DX009 (ip), vehicle: Klucel (hydroxypropylcellulose) (HPC) 115 % of control | dose: 7.8 mg/kg/injection, schedule: Q#A X012 (ip), vehicle: methylcellulose (MC) 102 % of control and 109 % of control | dose: 12.5 mg/kg/injection, schedule: Q01DX009 (ip), vehicle: Klucel (hydroxypropylcellulose) (HPC) 112 % of control | dose: 12.5 mg/kg/injection, schedule: Q04DX002 (ip), vehicle: Klucel (hydroxypropylcellulose) (HPC) 100 % of control | dose: 13.0 mg/kg/injection, schedule: Q#A X012 (ip), vehicle: methylcellulose (MC) 103 % of control and 109 % of control | dose: 22.0 mg/kg/injection, schedule: Q#A X012 (ip), vehicle: methylcellulose (MC) 102 % of control and 110 % of control | dose: 25.0 mg/kg/injection, schedule: Q01DX001 (ip), vehicle: saline 103 % of control | dose: 25.0 mg/kg/injection, schedule: Q01DX009 (ip), vehicle: Klucel (hydroxypropylcellulose) (HPC) 100 % of control and 108 % of control | dose: 25.0 mg/kg/injection, schedule: Q04DX002 (ip), vehicle: Klucel (hydroxypropylcellulose) (HPC) 107 % of control | dose: 25.0 mg/kg/injection, schedule: Q04DX003 (ip), vehicle: saline 105 % of control | dose: 36.0 mg/kg/injection, schedule: Q#A X012 (ip), vehicle: methylcellulose (MC) 106 % of control and 108 % of control | dose: 50.0 mg/kg/injection, schedule: Q01DX001 (ip), vehicle: saline 100 % of control | dose: 50.0 mg/kg/injection, schedule: Q01DX009 (ip), vehicle: Klucel (hydroxypropylcellulose) (HPC) 101 % of control and 107 % of control | dose: 50.0 mg/kg/injection, schedule: Q04DX002 (ip), vehicle: Klucel (hydroxypropylcellulose) (HPC) 97 % of control | dose: 50.0 mg/kg/injection, schedule: Q04DX003 (ip), vehicle: saline 116 % of control | dose: 60.0 mg/kg/injection, schedule: Q#A X012 (ip), vehicle: methylcellulose (MC) 106 % of control | dose: 100.0 mg/kg/injection, schedule: Q01DX001 (ip), vehicle: carboxymethylcellulose (CMC) 100 % of control | dose: 100.0 mg/kg/injection, schedule: Q01DX001 (ip), vehicle: saline 100 % of control and 110 % of control | dose: 100.0 mg/kg/injection, schedule: Q01DX005 (ip), vehicle: saline 106 % of control and 95 % of control and 92 % of control | dose: 100.0 mg/kg/injection, schedule: Q01DX009 (ip), vehicle: Klucel (hydroxypropylcellulose) (HPC) 103 % of control | dose: 100.0 mg/kg/injection, schedule: Q01DX009 (ip), vehicle: saline 94 % of control | [1] 104 % of control and 112 % of control | dose: 118.0 mg/kg/injection, schedule: Q01DX005 (ip), vehicle: water 112 % of control | dose: 118.0 mg/kg/injection, schedule: Q01DX009 (ip), vehicle: water 112 % of control | dose: 150.0 mg/kg/injection, schedule: Q01DX009 (ip), vehicle: saline 105 % of control | dose: 177.0 mg/kg/injection, schedule: Q01DX005 (ip), vehicle: water 114 % of control | dose: 177.0 mg/kg/injection, schedule: Q01DX009 (ip), vehicle: saline with Tween-80 120 % of control | dose: 177.0 mg/kg/injection, schedule: Q01DX009 (ip), vehicle: water 111 % of control | dose: 200.0 mg/kg/injection, schedule: Q01DX001 (ip), vehicle: carboxymethylcellulose (CMC) 100 % of control and 107 % of control | dose: 200.0 mg/kg/injection, schedule: Q01DX005 (ip), vehicle: saline 95 % of control and 101 % of control and 87 % of control | dose: 200.0 mg/kg/injection, schedule: Q01DX009 (ip), vehicle: Klucel (hydroxypropylcellulose) (HPC) 97 % of control | dose: 200.0 mg/kg/injection, schedule: Q01DX009 (ip), vehicle: carboxymethylcellulose (CMC) 114 % of control | dose: 200.0 mg/kg/injection, schedule: Q01DX009 (ip), vehicle: saline 102 % of control | [2] 94 % of control | dose: 266.0 mg/kg/injection, schedule: Q01DX005 (ip), vehicle: water 115 % of control | dose: 266.0 mg/kg/injection, schedule: Q01DX009 (ip), vehicle: saline with Tween-80 124 % of control | dose: 266.0 mg/kg/injection, schedule: Q01DX009 (ip), vehicle: water 112 % of control | dose: 300.0 mg/kg/injection, schedule: Q01DX009 (ip), vehicle: saline 102 % of control | dose: 400.0 mg/kg/injection, schedule: Q01DX001 (ip), vehicle: carboxymethylcellulose (CMC) 106 % of control and 109 % of control | dose: 400.0 mg/kg/injection, schedule: Q01DX005 (ip), vehicle: water 112 % of control | dose: 400.0 mg/kg/injection, schedule: Q01DX009 (ip), vehicle: Klucel (hydroxypropylcellulose) (HPC) 116 % of control | dose: 400.0 mg/kg/injection, schedule: Q01DX009 (ip), vehicle: saline 107 % of control | dose: 400.0 mg/kg/injection, schedule: Q01DX009 (ip), vehicle: water 117 % of control | [3] 88 % of control | dose: 500.0 mg/kg/injection, schedule: Q03HX024 (ip), vehicle: saline with Tween-80 124 % of control | dose: 600.0 mg/kg/injection, schedule: Q01DX005 (ip), vehicle: water 110 % of control | dose: 600.0 mg/kg/injection, schedule: Q01DX009 (ip), vehicle: saline 109 % of control | dose: 600.0 mg/kg/injection, schedule: Q01DX009 (ip), vehicle: water 119 % of control | dose: 600.0 mg/kg/injection, schedule: Q03HX024 (ip), vehicle: saline with Tween-80 113 % of control | dose: 800.0 mg/kg/injection, schedule: Q01DX001 (ip), vehicle: carboxymethylcellulose (CMC) 107 % of control | dose: 800.0 mg/kg/injection, schedule: Q01DX009 (ip), vehicle: Klucel (hydroxypropylcellulose) (HPC) 103 % of control | dose: 800.0 mg/kg/injection, schedule: Q01DX009 (ip), vehicle: carboxymethylcellulose (CMC) 122 % of control | dose: 900.0 mg/kg/injection, schedule: Q01DX005 (ip), vehicle: water 115 % of control | dose: 900.0 mg/kg/injection, schedule: Q01DX009 (ip), vehicle: water 122 % of control | dose: 1000.0 mg/kg/injection, schedule: Q01DX009 (ip), vehicle: carboxymethylcellulose (CMC) 112 % of control | dose: 1200.0 mg/kg/injection, schedule: Q01DX009 (ip), vehicle: carboxymethylcellulose (CMC) 118 % of control | dose: 1600.0 mg/kg/injection, schedule: Q01DX001 (ip), vehicle: carboxymethylcellulose (CMC) 112 % of control

CCOc1ccc(N(O)C(C)=O)cc1
inactive: [1] 91 % of control | [2] 100 % of control | [3] 96 % of control
